Measurements from US9309221B2, “1-substituted indazole derivative” (Dainippon Sumitomo Pharma Co., Ltd., priority 2012, dated 2016).

What was measured:
human α7 nAChR = biological target: T1, human α7 nAChR (Homo sapiens, UniProt P36544); assay: Evaluation of PAM activity with human α7 nACh receptor stably expressing cells (aequorin luminescence, FDSS7000); assay type: cell-based; conditions: ACh at EC20; for α7PAM (%) @ 10 μmol/L: test compound 10 μmol/L, ratio of RLU (Max-Min) of test-compound wells to control wells, human α7 nAChR expressing GH4C1 cells
T1 construct: expressed in transfected cells; host or cells: GH4C1 cells (rat pituitary, ATCC CCL-82.2)
T1 sequence (P36544 23-502): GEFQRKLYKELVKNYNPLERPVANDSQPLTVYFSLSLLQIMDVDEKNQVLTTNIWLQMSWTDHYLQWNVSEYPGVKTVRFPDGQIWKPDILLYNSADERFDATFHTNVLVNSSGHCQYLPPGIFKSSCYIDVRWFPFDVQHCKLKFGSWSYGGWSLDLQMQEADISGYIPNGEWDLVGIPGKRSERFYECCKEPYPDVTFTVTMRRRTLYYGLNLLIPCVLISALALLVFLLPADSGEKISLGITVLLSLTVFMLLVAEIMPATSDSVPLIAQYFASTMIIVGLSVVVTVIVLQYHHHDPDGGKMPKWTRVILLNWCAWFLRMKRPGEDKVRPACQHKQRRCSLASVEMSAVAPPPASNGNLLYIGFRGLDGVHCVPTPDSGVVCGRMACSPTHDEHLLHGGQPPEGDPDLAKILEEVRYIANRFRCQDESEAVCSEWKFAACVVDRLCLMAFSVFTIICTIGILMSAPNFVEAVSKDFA
Excerpt: Evaluation of PAM Activity with Human α7 nACh Receptor Stably Expressing Cells
(1) Human α7 nAChR stably expressing cells
Human α7 nAChR stably expressing cells were generated and cultured. In detail, GH4C1 cells derived from rat pituitary (cat#CCL-82.2, ATCC, USA) were used as a host cell. PcDNA3.1Zeo vector containing a nucleotide sequence encoding a protein GenBank BAC81731 and pcDNA3.1 vector containing human α7 nAChR gene (cat#V790-20, invitrogen, Carlsbad, Calif., USA) were transfected to the cells to give aequorins and human α7 nAChR stably expressing cells respectively. The aequorins and human α7 nAChR stably expressing cells were screened with Zeocin (cat#R25001, invitrogen, Carlsbad, Calif., USA) and Geneticin (cat#10131-027, invitrogen, Carlsbad, Calif., USA) respectively.
The cells were cultured in F-10 Nutrient Mixture (Ham) medium (cat#11550-043, invitrogen, Carlsbad, Calif., USA) containing 2.5% fetal bovine serum (cat#2917354, ICN Biomedicals, Inc, USA), 15% inactivated horse serum (cat#26050-088, invitrogen, Carlsbad, Calif., USA), 1 μg/mL Geneticin, and 5 μg/mL Puromycin (cat#14861-84, invitrogen, Carlsbad, Calif., USA), in a Collagen Type 1-coated dish (cat#4030-010, iwaki, Tokyo, Japan). During the culture, the medium was replaced with fresh medium in every 2 to 3 days, and the cells were treated with TrypLE Express (cat#45604-021, invitrogen, Carlsbad, Calif., USA) to collect them in every 7 days. Thus, the cells were subcultured.
7 Days after subculturing, the cells were treated with TrypLE Express to collect them when they were about 80% confluent. The cells were suspended in a reaction medium containing Hanks (cat#14065-056, invitrogen, Carlsbad, Calif., USA)/20 mmol/L Hepes (cat#15630-080, invitrogen, Carlsbad, Calif., USA), Buffer (pH 7.4), F-10 Nutrient Mixture (Ham), and 0.1 mg/mL Geneticin, and the suspension was seeded in a 384-well plate (cat#781090, Greiner, Germany) at 20000 cells/25 μL per well.
On the next day after seeding, Viviren (cat#E649X, Promega, Madison, Wis., USA) was added to the medium so that the final concentration could be 4 μmol/L (15 μL/well). The plates were centrifuged and then placed in the dark for 4 hours at room temperature.
(2) Preparation of the Test Samples
Each of the test compounds was dissolved in DMSO to prepare each test sample at a concentration of 1000-fold the final concentration. To the solution was added Hanks/20 mM HEPES/0.2% BSA (cat#A3803, Sigma, St. Louis, Mo., USA), and the concentration was adjusted to 6-fold the final concentration.
(3) Evaluation of PAM Activity
FDSS7000 (Hamamatsu Photonics) was used to detect the luminescence signal evoked by α7 nAChR stimulation. The cells and a luminescent substrate were put on a plate, and the test sample was added thereto. […] After the addition of ACh, the luminescence signal (the central wavelength: 465 nm) was measured for 138 seconds to calculate RLU (Max-Min). The ratio of the RLU (Max-Min) of the test-compound-containing wells to that of the control wells was defined as PAM activity.

Slc: ddY mice = assay: Novel object recognition test with mice (mORT); assay type: in vivo; conditions: 0.3 mg/kg, 1.0 mg/kg or 3 mg/kg
Experimental: Evaluation of Cognitive Function with Mice in Novel Object Recognition Test (Hereinafter, Referred to as “mORT”)
Slc: ddY mice (25 g to 30 g, male, Japan SLC) can be used in the novel object recognition test wherein the interval between the 1st trial (training) and the 2nd trial (test) correlates with the memory loss for the objects used in the 1st trial, and a significant memory-loss is observed when the 2nd trial is performed 24 hours after the 1st trial. According to the test mechanism, the present compounds were administered prior to the 1st trial, and the enhancement effect on memory in the 2nd trial was evaluated.

Row | α7PAM (%) @ 10 μmol/L (human α7 nAChR) [%] | PAM activity for α7 nAChR (in words) (human α7 nAChR; ratio of RLU (Max-Min) of test wells to control wells) | SMILES | efficacy at higher doses (Slc: ddY mice)
1 | 1209 | – | CO[C@H]1CC[C@H](NC(=O)N2CCC(n3ncc4cc(C)ccc43)CC2)CC1 [Example 1, N-(trans-4-methoxycyclohexyl)-4-(5-methyl-1H-indazol-1-yl)piperidine-1-carboxamide] | the efficacy did not decrease
2 | 1226 | – | CO[C@H]1CC[C@H](NC(=O)N2CCC(n3ncc4cc(C5CC5)ccc43)CC2)CC1 [Example 74, 4-(5-cyclopropyl-1H-indazol-1-yl)-N-(trans-4-methoxycyclohexyl)piperidine-1-carboxamide] | the efficacy did not decrease
3 | 1133 | – | CCc1cccc2c1cnn2C1CCN(C(=O)NC2CCC(F)(F)CC2)CC1 [Example 64, N-(4,4-difluorocyclohexyl)-4-(4-ethyl-1H-indazol-1-yl)piperidine-1-carboxamide] | –
4 | 1025 | – | CCCc1ccc2c(cnn2C2CCN(C(=O)NC3CCOCC3)CC2)c1 [Example 15, 4-(5-propyl-1H-indazol-1-yl)-N-(tetrahydro-2H-pyran-4-yl)piperidine-1-carboxamide] | –
5 | 1764 | – | CCc1ccc2c(cnn2C2CCN(C(=O)N[C@H]3CC[C@H](OC)CC3)CC2)c1 [Example 16, 4-(5-ethyl-1H-indazol-1-yl)-N-(trans-4-methoxycyclohexyl)piperidine-1-carboxamide] | –
6 | 6779 | stronger PAM activity than others | CCOc1ccc2c(cnn2C2CCN(C(=O)NC3CCCCC3)CC2)c1 [Example 18, N-cyclohexyl-4-(5-ethoxy-1H-indazol-1-yl)piperidine-1-carboxamide] | –
7 | 340 | – | O=C(NC1CCOCC1)N1CCC(n2ncc3cc(C(F)(F)F)ccc32)CC1 [Example 297] | –
